Test results published in patent US10793525B2, “13-cis-RAMBA retinamides that degrade MNKs for treating cancer” (UNIVERSITY OF MARYLAND, BALTIMORE, priority 2014, dated 2020).
pIC50: −log10 of the molar value.

What was measured:
MDA-MB-231 cells = assay: Wound-healing assay, MDA-MB-231 cell migration; type: cell-based, human; conditions: 5 μM, 24 h
Description: (§1) Wound healing assay and matrigel invasion assay were also conducted as described previously using highly metastatic PC-3 cells following treatment with 5 μM of RRs for 24 h.^8a,26
(§2) Based on previous studies with closely related compound,^8 the inhibitory effects of Compounds 16, 20 and 22 on cell migration were evaluated, using the human metastatic BC cell line, MDA-MB-231 by wound-healing assay. MDA-MB-231 cells (5×10^5 cells/well) were seeded on Boyden chamber, grown to confluence and scratches made at experimental tome zero. The cells were treated with indicated compounds (5 μM each) for 24 h. Representative photomicrographs of initial and final wounds are shown at 100× magnification. […] At 24 hours after cell monolayers were wounded, control cells had completely filled in the scratched area.

PC-3 cells = assay: Wound-healing assay, PC-3 cell migration; type: cell-based, human; conditions: 5 μM, 24 hours
Description: as §1
as §2, with “PC” for “BC”, “PC-3” for “MDA-MB-231”, “hours.” for “h.”

[1] = system: MDA-MB-231 human breast cancer cells; assay: MTT cell proliferation assay, MDA-MB-231; type: cell-based; conditions: MDA-MB-231 cells, SEM < 10%, read-out: GI50s MDA-MB-231
Description: (§3) MCF-7, MDA-MB-231, MDA-MB-468 and SKBR-3 human breast cancer cells and LNCaP, PC-3, and CWR22Rv1 human prostate carcinoma cells (American Type Culture Collection, Manassas, Va., USA) were maintained in RPMI 1640 media (Gibco-Life Technologies, Grand Island, N.Y., USA) supplemented with 10% fetal bovine serum and 1% penicillin/streptomycin. Western blotting was done as mentioned previously,^8, 13b using the following antibodies: AR, Bad, Bax, Bcl-2, eIF4E, Mnk1, Mnk-2, N-cadherin, PARP, peIF4E^ser209 purchased from Cell Signaling Technology, Danvers, Mass., USA. Anti-Mnk2 was purchased from Sigma-Aldrich and normal rabbit IgG, cyclin D1 was from Santa Cruz Biotechnology, CA, USA.
(§4) Cells were plated (2500 cells/well) in 96 well plates and treated with or without specified compounds as described previously.^8a, 12b
(§5) The clinically relevant retinoids, ATRA and 4-HPR and the Mnk inhibitor, cercosporamide were used as comparators in the assays.

[2] = system: PC-3 human prostate carcinoma cells; assay: MTT cell proliferation assay, PC-3; type: cell-based; conditions: PC-3 cells, SEM < 10%, read-out: GI50s PC-3
Description: as §3, §4, §5
(§6) The PC-3 cell line was the least sensitive to all the compounds tested.

[3] = system: LNCaP human prostate carcinoma cells; assay: MTT cell proliferation assay, LNCaP; type: cell-based; conditions: SEM < 10%, read-out: GI50s LNCaP
Description: as §3, §4, §5, §6

[4] = system: MDA-MB-231 xenograft tumors; assay: MDA-MB-231 anti-tumor efficacy study (xenograft); type: in vivo
Description: (§7) All animal studies were performed according to the guidelines and approval of the Animal Care Committee of the University of Maryland School of Medicine, Baltimore (UMB). Female Athymic Nude mice or male SCID (Charles Rivers Laboratories or UMB facilities) at 4-6 weeks of age were maintained in a pathogen-free environment. MDA-MB-231 (10×10^6) cells were subcutaneously implanted into Athymic Nude mice and CWR22Rv1 (1×10^6) cells into male SCID mice. Mice bearing established tumors (˜100 mm^3) were randomized into treatment groups of 6 and dosed with vehicle (40% β-cyclodexdrin in ddH2O), or compounds 20 and 22 (i.p., formulated in 40% β-cyclodexdrin in ddH2O, once daily, 5 days a week for 28 days).
(§8) The National Cancer Institute (NCI) criteria^23 were used to determine tumor growth efficacy of our compounds. Thus, percent test or treatment/control (% T/C), defined as the ratio of the median tumor volume for the treated group versus control group, was calculated as % T/C=[(median tumor volume of treated group at day 28)/(median tumor volume of control group at day 28)]×100.
Indeed, the two compounds were equipotent (FIG. 9A). […] Representative photos of the tumor-bearing mice in the control and the two treatment groups at termination of experiment (day 28) are presented in FIG. 9B.

[5] = system: CWR22Rv1 xenograft tumors; assay: CWR22Rv1 anti-tumor efficacy study (xenograft); type: in vivo, mice
Description: as §7, §8

[6] = system: fAR, AR-V7, Mnk-1, peIF4E and their downstream targets; assay: Molecular analysis of CWR22Rv1 tumors; type: in vivo; conditions: CWR22Rv1 tumors from treated mice
Description: To assess their in vivo mode of action, we evaluated the effects of Compound 20 on fAR, AR-V7, Mnk-1, peIF4E and their downstream targets.

[7] = system: fAR, Mnk1/2, peIF4E, cyclin D1 and cleaved PARP; assay: Western blot of lysates from LNCaP cells; type: cell-based, human; conditions: 0.6-20 μM, 24 hours
Description: as §3
Equal protein concentrations from LNCaP cells treated with Compounds 16, 20 and 22 at different concentrations (0.6-20 μM) for 24 hours were separated by SDS-PAGE and western blots probed with antibodies to fAR, Mnk1/2, peIF4E, cyclin D1 and cleaved PARP. Vehicle treated cells were included as a control and all blots were reprobed for β-actin for loading control.

[8] = MDA-MB-231 xenograft mice, i.p. 20 mg/kg 5×/week over 28 days
[9] = CWR22Rv1 xenografts, castrated SCID mice, i.p. 20 mg/kg/day, 5 days per week for 28 days

Compound: CC1=C(/C=C/C(C)=C/C=C/C(C)=C\C(=O)Nc2cccc(F)c2)C(C)(C)CCC1n1ccnc1 (stereo not shown) [Compound 20, (2Z,4E,6E,8E)-9-(3-(1H-imidazol-1-yl)-2,6,6-trimethylcyclohex-1-en-1-yl)-N-(3-fluorophenyl)-3,7-dimethylnona-2,4,6,8-tetraenamide]
- migration of MDA-MB-231 cells (MDA-MB-231 cells): significantly inhibited migration
- migration of PC-3 cells (PC-3 cells): significantly inhibited migration
- pIC50 [1]: 5.07
- pIC50 [2]: 5.25
- pIC50 [3]: 5.57
- body weight [4, 8]: did not lose body weight
- signs of toxicity / adverse events [4, 8]: no apparent adverse events
- suppression of tumor growth ([4]; MDA-MB-231 xenografts, i.p. 20 mg/kg 5×/week over 28 days): 85.4%
- % T/C (treated/control median tumor volume) ([4]; MDA-MB-231 xenografts, i.p. 20 mg/kg 5×/week, day 28): 14.6%
- adverse effects ([5]; CWR22Rv1 xenograft mice): no apparent adverse effects
- body weights ([5]; CWR22Rv1 xenograft mice, vehicle control versus treatment): comparable
- % T/C value [5, 9]: 38.8%
- suppression of tumor growth [5, 9]: 61.2%
- fAR, AR-V7, Mnk1/2, peIF4E, cyclin D1 and Bcl-2 in tumors [6]: depletion
- pro-apoptotic protein Bad in tumors [6]: up-regulation
- cleaved PARP (c-PARP) [7]: induced cleaved PARP
- cyclin D1 [7]: significant depletion
- expression of total eIF4E [7]: no noticeable effects
- expressions of fAR, Mnk1 and Mnk2 [7]: significantly and in a dose-dependent fashion, reduced
